Where two headings read alike, the source gives them in different places.
Tests used:
[1] = tested on: E. coli Ecoli233 (KPC3); experiment: Synergistic broth micro-dilution MIC; format: cell-based, Escherichia coli
[2] = tested on: KPC-3 expressing E. coli (J53 R6206); experiment: Synergistic broth micro-dilution MIC (checkerboard); format: cell-based, Escherichia coli; details: for MIC: Escherichia coli, read-out: MIC of BLI alone, BLI alone
[3] = tested on: KPC2 K. pneumoniae ATCC BAA 1705; experiment: Neutropenic mice thigh infection model (human adapted model); format: in vivo; details: for Bacterial load (range), Doripenem + BLI: Doripenem 70 mg/kg fractionated + BLI 35 mg/kg bolus, end point 8 h
Experimental: Female Swiss Albino mice weighing 24-30 g were used for all studies. Study protocols were reviewed and approved by Institutional Animal Ethical Committee, Orchid Research Laboratories Limited. Mice were rendered neutropenic by intra-peritoneal cyclophosphamide injections. Log phase culture in brain heart infusion broth was injected in to mice thighs. Imipenem or Doripenen alone or in combination were administered sub-cutaneously in decreasing fractionated doses every 15 minutes over the period of 5.5 h (Flückiger, U. et al. “Integration of pharmacokinetics and pharmacodynamics of Imipenem in a human-adapted mouse model’. Antimicrobial Agents and Chemother, 1991, 35(9): 1905-1910). The Compound-1 or tazobactam was administered sub-cutaneously as bolus dose at the start of dosing. Efficacy end point was 6 h in Imipenem studies and 8 h in Doripenen studies.
Three experiments were carried out where Doripenen alone or in combination with compound-1 or tazobactam (two experiments) were evaluated. Doripenem 70 mg/kg was administered in fractionated doses over the period of 5.5 h (Fluckiger, U. et al. “Integration of pharmacokinetics and pharmacodynamics of Imipenem in a human-adapted mouse model’. Antimicrobial Agents and Chemother., 1991, 35(9): 1905-1910). Compound-1 or tazobactam was administered as bolus dose at initiation of therapy. Efficacy end point was 8 h after initiation of therapy.

[4] = tested on: E. cloacae 01 MGH 049 (KPC2, AmpC); experiment: Synergistic broth micro-dilution MIC; format: cell-based; details: BLI at 4 μg/mL
[5] = tested on: KPC2 K. pneumoniae ATCC BAA 1705; experiment: Mice systemic infection model; format: in vivo; details: Klebsiella pneumoniae
Experimental: Female Swiss Albino mice, weighing 18-22 g were used for all studies. For each dose group, 5 or 6 mice were included. Study protocols were reviewed and approved by Institutional Animal Ethical Committee, Orchid Research Laboratories Limited. Mice were housed in individually ventilated cages provided with food and water ad libitum, throughout the study period. From overnight culture in Brain-Heart Infusion agar medium, challenge inoculum with required bacterial density was prepared in normal saline containing Hog gastric mucin. In studies involved with doripenem, washed bacterial cells was used. Each mouse was infected […] inoculum by intra-peritoneal injection.
Infected mice were dosed sub-cutaneously, with drug preparations at three different time points post-infection.
Imipenem with BLI combinations: Increasing concentrations of Imipenem as single agent or in combination with fixed concentration of BLIs were used to dose infected mice, sub-cutaneously. In this experiment Imipenem was always administered along with cilastatin. Doripenem with BLI combinations: Increasing concentrations of doripenem as single agent or in combination with fixed concentration of BLIs were used to dose infected mice, sub-cutaneously.
Survival of the treated mice were monitored twice a day, up to 7 days post-infection. Efficacy dose 50 (ED50) was calculated by Reed and Muench method (Reed, L. J.; Muench, H. “A simple method of estimating fifty percent endpoints”. The American Journal of Hygiene, 1938, 27: 493-497.).

[6] = target: T1, crude KPC-2 enzyme extract (Klebsiella pneumoniae, UniProt Q9F663); experiment: β-Lactamase inhibitory assay with CENTA substrate; format: biochemical
T1 construct: enzyme extracts from KPC-2 producing and KPC-3 expressing bacterial gram negative strains were used; endogenous in cells; host or cells: KPC-2 producing gram-negative strain
Source text: (§1) The Compound-1 was subjected to β-lactamase inhibitory assay to determine IC50 and to compare that with the comparator BLI agents as described elsewhere (Bebrone et. al., Antimicrob. Agents. Chemother, 2001, 45(6): 1868-1871; Jamieson et. al, Antimicrob. Agents. Chemother, 2003, 47(5): 1652-1657). Briefly, enzyme extracts from KPC-2 producing and KPC-3 expressing bacterial gram negative strains were used to study the β-lactamase inhibitory activity and determination of IC50 using CENTA as the substrate for β-lactamase.

[7] = target: crude KPC-3 enzyme extract (UniProt Q9F663, H272Y, species not given); experiment: β-Lactamase inhibitory assay with CENTA substrate; format: biochemical; details: also headed KPC2
Source text: as §1

[8] = tested on: K. pneumoniae NCTC 13438 (KPC3); experiment: Synergistic broth micro-dilution MIC; format: cell-based, Klebsiella pneumoniae; details: BLI at 4 μg/mL
[9] = BAA1705, 168 h, read-out: ED50, single agent
[10] = BAA1705, BLI fixed at 64 mg/kg, mice, sub-cutaneous, with cilastatin, read-out: ED50 of Imipenem + BLI

| SMILES | MIC of Imipenem in combination with BLI ([1]; BLI at 4 μg/mL) [µg/mL] | MIC of Imipenem in combination with BLI ([1]; BLI at 16 μg/mL) [µg/mL] | MIC of Cefepime in combination with BLI ([2]; BLI at 2 μg/mL) [µg/mL] | MIC of Cefotaxime in combination with BLI ([2]; BLI at 2 μg/mL) [µg/mL] | MIC of Ceftazidime in combination with BLI ([2]; BLI at 2 μg/mL) [µg/mL] | MIC of Ceftobiprole in combination with BLI ([2]; BLI at 2 μg/mL) [µg/mL] | MIC of Imipenem in combination with BLI ([2]; BLI at 2 μg/mL) [µg/mL] | MIC of Meropenem in combination with BLI ([2]; BLI at 2 μg/mL) [µg/mL] | MIC of Cefepime in combination with BLI ([2]; BLI at 4 μg/mL) [µg/mL] | MIC of Cefotaxime in combination with BLI ([2]; BLI at 4 μg/mL) [µg/mL] | MIC of Ceftazidime in combination with BLI ([2]; BLI at 4 μg/mL) [µg/mL] | MIC of Ceftobiprole in combination with BLI ([2]; BLI at 4 μg/mL) [µg/mL] | MIC of Imipenem in combination with BLI ([2]; BLI at 4 μg/mL) [µg/mL] | MIC of Cefepime in combination with BLI ([2]; BLI at 8 μg/mL) [µg/mL] | MIC of Cefotaxime in combination with BLI ([2]; BLI at 8 μg/mL) [µg/mL] | MIC of Ceftazidime in combination with BLI ([2]; BLI at 8 μg/mL) [µg/mL] | MIC of Ceftobiprole in combination with BLI ([2]; BLI at 8 μg/mL) [µg/mL] | MIC of Imipenem in combination with BLI ([2]; BLI at 8 μg/mL) [µg/mL] | MIC of Meropenem in combination with BLI ([2]; BLI at 8 μg/mL) [µg/mL] | MIC of Imipenem in combination with BLI ([2]; BLI at 16 μg/mL) [µg/mL] | other results |
| --- | --- | --- | --- | --- | --- | --- | --- | --- | --- | --- | --- | --- | --- | --- | --- | --- | --- | --- | --- | --- | --- |
| C[n+]1ccn(C[C@@]2(C)[C@H](C(=O)[O-])N3C(=O)C[C@H]3S2(=O)=O)n1 [Compound-1, 1-{[(2S,3S,5R)-2-Carboxy-3-methyl-4,4,7-trioxo-4-thia-1-azabicyclo[3.2.0]hept-3-yl]methyl}-3-methyl-1H-1,2,3-triazol-3-ium] | 4 | 1 | 1 | 1 | 2 | 2 | 1 | <0.06 | 0.25 | <0.25 | 1 | 0.5 | 0.5 | <0.125 | <0.25 | 1 | <0.25 | 0.5 | <0.06 | 0.25 | MIC of Meropenem in combination with BLI ([2]; BLI at 16 μg/mL): <0.125 µg/mL; MIC [2]: > 8 µg/mL; Bacterial load (range), Doripenem + BLI [3]: 7.9E+05-1.4E+06 CFU/thigh; Bacterial load (range), Doripenem + BLI ([3]; listed as compound-1): 7.9E+05-1.3E+06 CFU/thigh; Bacterial load, Imipenem + BLI ([3]; Imipenem 140 mg/kg fractionated + BLI 140 mg/kg bolus, end point 6 h): 2.1E+05 CFU/thigh; MIC of Imipenem in combination with BLI [4]: 4 µg/mL; ED50 [5, 9]: > 64 mg/kg; ED50 [5, 10]: 2.2 mg/kg; IC50 [6]: 190 µM; IC50 [7]: 10.7 µM; MIC of Imipenem in combination with BLI [8]: 32 µg/mL |
| C[C@]1(Cn2ccnn2)[C@H](C(=O)O)N2C(=O)C[C@H]2S1(=O)=O [Tazobactam] | 8 | 8 | 16 | 8 | 32 | 32 | 2 | 1 | 8 | 8 | 32 | 16 | 2 | 4 | 4 | 32 | 16 | 1 | 0.5 | 1 | MIC of Meropenem in combination with BLI ([2]; BLI at 4 μg/mL): 0.5 µg/mL; MIC of Meropenem in combination with BLI ([2]; BLI at 16 μg/mL): <0.125 µg/mL; MIC [2]: > 8 µg/mL; Bacterial load (range), Doripenem + BLI [3]: 1.19 × 10^7-1.6 × 10^7 CFU/thigh; MIC of Imipenem in combination with BLI [4]: 8 µg/mL; ED50 [5, 9]: > 200 mg/kg; ED50 [5, 10]: 4 mg/kg; IC50 [6]: 980 µM; IC50 [7]: 71 µM; MIC of Imipenem in combination with BLI [8]: 64 µg/mL |
